{"source": "paper PMC4287489", "about": "“Ribose 5-Phosphate Isomerase B Knockdown Compromises Trypanosoma brucei Bloodstream Form Infectivity” (PLoS Neglected Tropical Diseases, 2015)", "key": {"[1]": {"biological_target": "T1, Trypanosoma cruzi ribose 5-phosphate isomerase B (TcRpiB) (Trypanosoma cruzi, UniProt Q4DBP9)", "T1 construct": "gene Tc00.1047053508601.119; recombinant N-terminal 6xHis-tagged TcRpiB (CL Brener Non-Esmeraldo-like) expressed in E. coli; 159 residues per monomer", "T1 sequence (Q4DBP9 entry or part of it)": "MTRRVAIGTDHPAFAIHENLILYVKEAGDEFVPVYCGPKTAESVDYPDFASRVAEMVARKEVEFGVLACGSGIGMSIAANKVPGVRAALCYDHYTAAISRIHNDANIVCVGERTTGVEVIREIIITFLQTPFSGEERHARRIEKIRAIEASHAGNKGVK", "assay": "spectrophotometric isomerase assay; Ki from Kmapp/Vmax plot; IC50 […]", "format": "biochemical"}, "[2]": {"biological_target": "T2, Trypanosoma brucei ribose 5-phosphate isomerase B (TbRpiB) (Trypanosoma brucei, UniProt Q384D1)", "T2 construct": "gene Tb11.01.0700; recombinant N-terminal 6xHis-tagged TbRpiB expressed in E. coli; 155 residues per monomer", "T2 sequence (Q384D1 entry or part of it)": "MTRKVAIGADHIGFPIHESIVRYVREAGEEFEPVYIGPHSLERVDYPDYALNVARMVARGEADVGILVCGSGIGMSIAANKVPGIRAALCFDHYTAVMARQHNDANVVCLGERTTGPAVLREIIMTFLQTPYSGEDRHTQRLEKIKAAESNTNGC", "assay": "spectrophotometric isomerase assay ([…] nm) and cysteine-carbazole assay; Ki from Kmapp/Vmax plot; IC50 […]", "format": "biochemical"}, "[3]": {"test_system": "O=C(CO)[C@H](O)[C@H](O)COP(=O)(O)O", "assay": "purified protein"}, "[4]": {"biological_target": "T1, Trypanosoma cruzi ribose 5-phosphate isomerase B (TcRpiB)", "assay": "enzyme kinetics (Km), direct spectrophotometric assay at […] nm", "format": "biochemical"}}}
{"compound": "O=C(NO)[C@H](O)[C@H](O)COP(=O)(O)O", "note": "[4-PEH, 4-deoxy-4-phospho-D-erythronohydroxamic acid]", "values": [{"measurement": "Ki", "setting": "[1]", "result": 1600, "unit": "µM"}, {"measurement": "Ki", "setting": "[2]", "result": 2200, "unit": "µM"}]}
{"compound": "Trypanosoma brucei ribose 5-phosphate isomerase B (TbRpiB) (Trypanosoma brucei brucei TREU927)", "values": [{"measurement": "Km", "setting": "[3]", "result": "2390 ± 940", "unit": "µM"}, {"measurement": "kcat", "setting": "[3]", "result": "39.4 ± 5.32", "unit": "s⁻¹"}, {"measurement": "kcat/Km", "setting": "[3]", "result": 16400, "unit": "M⁻¹ s⁻¹"}]}
{"compound": "O=P(O)(O)OC[C@H]1OC(O)[C@H](O)[C@@H]1O", "note": "(stereo partly drawn) [R5P, D-ribose 5-phosphate]", "values": [{"measurement": "enzyme kinetics (Km), direct spectrophotometric assay at 290 nm", "setting": "[4]", "result": "enzymes have in vitro ribose 5-phosphate isomerase activity, as these proteins can use both R5P and Ru5P as substrates"}]}
